From ChEMBL document CHEMBL4680251, “Discovery of a 2-pyridinyl urea-containing compound YD57 as a potent inhibitor of apoptosis signal-regulating kinase 1 (ASK1)” (Eur J Med Chem, 2020)

Assays:
[1] = molecular target: CDK2/Cyclin A2 (Homo sapiens, UniProt P24941); experiment: Inhibition of full length human recombinant CDK2/Cyclin A using histone H1 as substrate incubated for 40 mins in presence of [gamma-33ATP] by radiometric scintillation counting analysis; assay type: protein-complex assay
[2] = test system: HepG2; experiment: Induction of cell cycle arrest in human HepG2 cells assessed as accumulation at G2/M phase at 2 uM incubated for 24 hrs by propidium iodide staining based flow cytometry (reference value: 33.49%); assay type: functional
[3] = test system: HepG2; experiment: Induction of cell cycle arrest in human HepG2 cells assessed as accumulation at S phase at 1 uM incubated for 24 hrs by propidium iodide staining based flow cytometry (reference value: 33.27%); assay type: functional
[4] = test system: HepG2; experiment: Induction of cell cycle arrest in human HepG2 cells assessed as accumulation at S phase at 2 uM incubated for 24 hrs by propidium iodide staining based flow cytometry (reference value: 33.27%); assay type: functional

C[C@H](CO)n1cnnc1-c1cccc(NC(=O)Nc2cc3ccccn3n2)n1
IC50 [1]: 0.352 µM | Activity [2]: 34.32% | Activity [3]: 11.7% | Activity [4]: 7.15%
